The results in this text go back to US9114137B2, “Derivatives of pyrazolophenyl-benzenesulfonamide compounds and use thereof as antitumor agents” (Nerviano Medical Sciences S.R.L., priority 2010, dated 2015).

Where two headings read alike, the source gives them in different places.

Common to all, as to format: cell-based
Assay [1] concerns human melanoma cells A375 (with a mutated B-RAF). The experiment in a line: In vitro cell proliferation assay, A375. Conditions: A-375. As to the method:
(§1) Exponentially growing human melanoma cells A375 (with a mutated B-RAF) and human melanoma cells Mewo (with wild-type B-Raf) were seeded and incubated at 37° C. in a humidified 5% CO2 atmosphere. After 24 hours, scalar doses of the compound were added to the medium and cells incubated for 72 hours. At the end of treatment, cells were washed and counted. Cell number was determined by a cellular adenosine triphosphate monitoring system. Cell proliferation was compared to control cells and the concentration inhibiting cell growth by 50% was calculated.

Assay [2] relates to human melanoma cells Mewo (with wild-type B-Raf). The experiment in a line: In vitro cell proliferation assay, Mewo. The conditions noted are these: 72 hours incubation, cell number by ATP monitoring. As for the experimental part: as §1
Assay [3] deals with p-MAPK (T202/Y204) in A375 human melanoma cells, having a mutated B-RAF. The experiment in a line: p-MAPK (T202/Y204) ArrayScan assay. The conditions noted are these: A-375, 1.5 or 2 hours treatment, cytoplasmatic p-MAPK fluorescence, read-out: Array Scan A375 IC50. As for the experimental part:
A375 human melanoma cells, having a mutated B—RAF, were seeded in 384-well poly-lysine coated plates (Matrix) at a density of 1000 cells/well with appropriate medium supplemented with 10% FCS and incubated for 16-24 hours. Cells were treated for 1.5 or 2 hours with increasing doses of compounds (starting dose 10 μM, dilution factor 2.5). At the end of the treatment cells were fixed with p-formaldehyde 3.7% for 15-30 min, then washed twice with D-PBS (80 μl/well) and permeabilized with D-PBS containing 0.1% Triton X-100 and 1% BSA (Sigma-Aldrich) for 15 minutes at room temperature (staining solution). Anti-phospho-MAPK (T202/Y204) monoclonal antibody E10 (Cell Signaling, cat. #9106) diluted 1:100 was added in staining solution and incubated for 1 hour at 37° C. After removal of the primary antibody solution, the anti-mouse Cy™2-conjugated (Green) secondary antibody (Amersham) diluted 1:500 in staining solution containing 2 μg/ml DAPI was added. The plate was incubated for 1 hour at 37° C., washed twice and then red with Cellomics' ArrayScan VTI (4 fields/well, CytoNucTrans algorithm).
The parameter “MEAN_RingAvgIntenCh2,” which measures the mean cytoplasmatic fluorescence intensity associated to p-MAPK staining, is reported as the final result.

Setting [4] is: A375 human melanoma cells (mutated B-RAF), 72 hours incubation, cell number by ATP monitoring, read-out: Proliferation A375 IC50.

As to `CC(=O)Nc1cc(-c2cn(C3CCN(C)CC3)nc2-c2cccc(NS(=O)(=O)c3cc(F)ccc3F)c2F)ccn1` [Compound 31, N-{4-[3-(3-{[(2,5-difluorophenyl)sulfonyl]amino}-2-fluorophenyl)-1-(1-methylpiperidin-4-yl)-1H-pyrazol-4-yl]pyridin-2-yl}acetamide], the IC50 in assay [1] (setting [4]) is less than 16 nM; in assay [2], more than 10000 nM; in assay [3], less than 16 nM.
As for `Nc1cc(-c2cn(C3CCOCC3)nc2-c2cccc(NS(=O)(=O)c3cc(F)ccc3F)c2F)ccn1` [Compound 14, N-{3-[4-(2-Amino-pyridin-4-yl)-1-(tetrahydro-pyran-4-yl)-1H-pyrazol-3-yl]-2-fluoro-phenyl}-2,5-difluoro-benzenesulfonamide], the IC50 in assay [1] (setting [4]) was 34 nM; in assay [2] it was more than 10000 nM; in assay [3] it was less than 16 nM.
On to `CC(C)n1cc(-c2ccnc(N)n2)c(-c2cccc(NS(=O)(=O)c3cc(F)ccc3F)c2F)n1` [Compound 10, N-{3-[4-(2-Amino-pyrimidin-4-yl)-1-isopropyl-1H-pyrazol-3-yl]-2-fluoro-phenyl}-2,5-difluoro-benzenesulfonamide], for which the results for the IC50 in assay [1] (setting [4]), in assay [2] and in assay [3] were 3 nM, more than 10000 nM and less than 16 nM, respectively.
Take `CC(C)n1cc(-c2ccncc2)c(-c2cccc(NS(=O)(=O)c3cc(F)ccc3F)c2F)n1` [Compound 9, 2,5-Difluoro-N-[2-fluoro-3-(1-isopropyl-4-pyridin-4-yl-1H-pyrazol-3-yl)-phenyl]-benzenesulfonamide]: the IC50 in assay [1] (setting [4]) is 5 nM; in assay [2] it was more than 10000 nM; in assay [3], less than 16 nM.
For `Nc1cc(-c2cn(C3CCCC3)nc2-c2cccc(NS(=O)(=O)c3cc(F)ccc3F)c2F)ccn1` [Compound 17, N-{3-[4-(2-Amino-pyridin-4-yl)-1-cyclopentyl-1H-pyrazol-3-yl]-2-fluoro-phenyl}-2,5-difluoro-benzenesulfonamide], the IC50 is 28 nM in assay [1] (setting [4]), more than 10000 nM in assay [2] and less than 16 nM in assay [3].
Turning to `O=S(=O)(Nc1cccc(-c2nn(C3CCC(F)(F)CC3)cc2-c2ccncc2)c1F)c1cc(F)ccc1F` [Compound 25, N-{3-[1-(4,4-difluorocyclohexyl)-4-(pyridin-4-yl)-1H-pyrazol-3-yl]-2-fluorophenyl}-2,5-difluorobenzenesulfonamide], the IC50 was less than 16 nM in assay [1] (setting [4]), more than 10000 nM in assay [2] and less than 16 nM in assay [3].
As for `CC(C)C(=O)Nc1cc(-c2cn(C3CCOCC3)nc2-c2cccc(NS(=O)(=O)c3cc(F)ccc3F)c2F)ccn1` [Compound 30, N-{4-[3-(3-{[(2,5-difluorophenyl)sulfonyl]amino}-2-fluorophenyl)-1-(tetrahydro-2H-pyran-4-yl)-1H-pyrazol-4-yl]pyridin-2-yl}-2-methylpropanamide], the figures for the IC50 in assay [1] (setting [4]), in assay [2] and in assay [3] were less than 16 nM, more than 10000 nM and less than 16 nM, respectively.
In the case of `CC(=O)Nc1cc(-c2cn(C3CCOCC3)nc2-c2cccc(NS(=O)(=O)c3cc(F)ccc3F)c2F)ccn1` [Compound 26, N-{4-[3-(3-{[(2,5-difluorophenyl)sulfonyl]amino}-2-fluorophenyl)-1-(tetrahydro-2H-pyran-4-yl)-1H-pyrazol-4-yl]pyridin-2-yl}acetamide], the IC50 is 7 nM in assay [1] (setting [4]), more than 10000 nM in assay [2] and less than 16 nM in assay [3].
Consider `O=S(=O)(Nc1cccc(-c2nn(C3CCN(C4CC4)CC3)cc2-c2ccncc2)c1F)c1cc(F)ccc1F` [Compound 2, N-{3-[1-(1-Cyclopropyl-piperidin-4-yl)-4-pyridin-4-yl-1H-pyrazol-3-yl]-2-fluoro-phenyl}-2,5-difluoro-benzenesulfonamide], for which the IC50 was 12 nM in assay [1] (setting [4]), more than 10000 nM in assay [2] and less than 16 nM in assay [3].
For `Nc1cc(-c2cn(CCF)nc2-c2cccc(NS(=O)(=O)c3cc(F)ccc3F)c2F)ccn1` [Compound 13, N-{3-[4-(2-Amino-pyridin-4-yl)-1-(2-fluoro-ethyl)-1H-pyrazol-3-yl]-2-fluoro-phenyl}-2,5-difluoro-benzenesulfonamide], the IC50 in assay [1] (setting [4]) is less than 16 nM; in assay [2] it was more than 10000 nM; in assay [3], less than 16 nM.
For the compound `Nc1nccc(-c2cn(CCF)nc2-c2cccc(NS(=O)(=O)c3cc(F)ccc3F)c2F)n1` [Compound 11, N-{3-[4-(2-Amino-pyrimidin-4-yl)-1-(2-fluoro-ethyl)-1H-pyrazol-3-yl]-2-fluoro-phenyl}-2,5-difluoro-benzenesulfonamide], the IC50 is 17 nM in assay [1] (setting [4]), more than 10000 nM in assay [2] and less than 16 nM in assay [3].
For `O=S(=O)(Nc1cccc(-c2nn(CCF)cc2-c2ccncc2)c1F)c1cc(F)ccc1F` [Compound 7, 2,5-Difluoro-N-{2-fluoro-3-[1-(2-fluoro-ethyl)-4-pyridin-4-yl-1H-pyrazol-3-yl]-phenyl}-benzenesulfonamide], the values for the IC50 in assay [1] (setting [4]), in assay [2] and in assay [3] were less than 16 nM, more than 10000 nM and less than 16 nM, respectively.
With `CCn1cc(-c2ccncc2)c(-c2cccc(NS(=O)(=O)c3cc(F)ccc3F)c2F)n1` [Ref. cpd, N-{3-[1-ethyl-4-(pyridin-4-yl)-1H-pyrazol-3-yl]-2-fluorophenyl}-2,5-difluorobenzenesulfonamide, reference compound], the IC50 was 48 nM in assay [1] (setting [4]); 84 nM in assay [1] (Homo sapiens, value quoted in text for the reference compound, no unit or cell line printed, read-out: antiproliferative activity); more than 10000 nM in assay [2]; less than 16 nM in assay [3].
`CN1CCC(n2cc(-c3ccncc3)c(-c3cccc(NS(=O)(=O)c4cc(F)ccc4F)c3F)n2)CC1` [Compound 5, 2,5-Difluoro-N-{2-fluoro-3-[1-(1-methyl-piperidin-4-yl)-4-pyridin-4-yl-1H-pyrazol-3-yl]-phenyl}-benzenesulfonamide]: the values for the IC50 in assay [1] (setting [4]), in assay [2] and in assay [3] were 8 nM, more than 10000 nM and less than 16 nM, respectively.
Regarding `CC(C)n1cc(-c2ccnc(N)c2)c(-c2cccc(NS(=O)(=O)c3cc(F)ccc3F)c2F)n1` [Compound 12, N-{3-[4-(2-Amino-pyridin-4-yl)-1-isopropyl-1H-pyrazol-3-yl]-2-fluoro-phenyl}-2,5-difluoro-benzenesulfonamide], the figures for the IC50 in assay [1] (setting [4]), in assay [2] and in assay [3] were 17 nM, more than 10000 nM and less than 16 nM, respectively.
